Measurements reported in PubChem BioAssay AID248 (DTP/NCI, 2004).
“And” between values parts separate entries of the source, which are not always exact repeats. Equal values may be shown once. Toxic doses and inconclusive results are not listed. Rule as the data show it: active = T/C of 150% or more; inactive = T/C below 125%.

Tested on: L1210 leukemia ip in BDF1 mice, survival T/C
Experiment: NCI In Vivo Anticancer Drug Screen. Data for tumor model L1210 Leukemia (intraperitoneal) in B6D2F1 (BDF1) mice
Details: endpoint: mean survival time, higher = longer survival
In short: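 Mice bearing the transplanted tumor received compound or vehicle. Survival of the treated group was divided by that of the vehicle-treated control group to give the ratio.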

[1] = dose: 100.0 mg/kg/injection, schedule: Q01DX001 (ip), vehicle: saline with Tween-80
[2] = dose: 12.5 mg/kg/injection, schedule: Q01DX009 (ip), vehicle: saline
[3] = dose: 25.0 mg/kg/injection, schedule: Q01DX009 (ip), vehicle: saline
[4] = dose: 100.0 mg/kg/injection, schedule: Q01DX001 (ip), vehicle: saline
[5] = dose: 200.0 mg/kg/injection, schedule: Q01DX001 (ip), vehicle: saline
[6] = dose: 100.0 mg/kg/injection, schedule: Q04DX003 (ip), vehicle: saline with Tween-80
[7] = dose: 100.0 mg/kg/injection, schedule: Q04DX003 (ip), vehicle: Klucel (hydroxypropylcellulose) (HPC)
[8] = dose: 100.0 mg/kg/injection, schedule: Q04DX002 (ip), vehicle: saline with Tween-80
[9] = dose: 200.0 mg/kg/injection, schedule: Q04DX002 (ip), vehicle: saline with Tween-80
[10] = dose: 400.0 mg/kg/injection, schedule: Q04DX002 (ip), vehicle: saline with Tween-80
[11] = dose: 100.0 mg/kg/injection, schedule: Q01DX009 (ip), vehicle: Klucel (hydroxypropylcellulose) (HPC)
[12] = dose: 200.0 mg/kg/injection, schedule: Q01DX009 (ip), vehicle: Klucel (hydroxypropylcellulose) (HPC)
[13] = dose: 400.0 mg/kg/injection, schedule: Q01DX009 (ip), vehicle: Klucel (hydroxypropylcellulose) (HPC)

Measured: T/C

CNC(=O)c1cc(NC(=O)c2ccc(C(=O)Nc3cc(C(=O)NC)cc(C4=NCCN4)c3)cc2)cc(C2=NCCN2)c1
inactive: dose: 16.0 mg/kg/injection, schedule: Q01DX015 (ip), vehicle: methylcellulose (MC) 90 % of control | dose: 25.0 mg/kg/injection, schedule: Q01DX009 (ip), vehicle: carboxymethylcellulose (CMC) 96 % of control | dose: 31.0 mg/kg/injection, schedule: Q01DX015 (ip), vehicle: methylcellulose (MC) 94 % of control | dose: 50.0 mg/kg/injection, schedule: Q01DX009 (ip), vehicle: carboxymethylcellulose (CMC) 96 % of control | dose: 62.0 mg/kg/injection, schedule: Q01DX015 (ip), vehicle: methylcellulose (MC) 94 % of control and 120 % of control | dose: 100.0 mg/kg/injection, schedule: Q01DX001 (ip), vehicle: carboxymethylcellulose (CMC) 96 % of control | dose: 100.0 mg/kg/injection, schedule: Q01DX009 (ip), vehicle: carboxymethylcellulose (CMC) 113 % of control | dose: 125.0 mg/kg/injection, schedule: Q01DX015 (ip), vehicle: methylcellulose (MC) 94 % of control and 102 % of control | dose: 200.0 mg/kg/injection, schedule: Q01DX001 (ip), vehicle: carboxymethylcellulose (CMC) 91 % of control | dose: 200.0 mg/kg/injection, schedule: Q01DX009 (ip), vehicle: carboxymethylcellulose (CMC) 98 % of control | dose: 500.0 mg/kg/injection, schedule: Q01DX015 (ip), vehicle: methylcellulose (MC) 106 % of control

O=C(NCc1ccccc1)C(F)(F)F
inactive: [1] 102 % of control | dose: 200.0 mg/kg/injection, schedule: Q01DX001 (ip), vehicle: saline with Tween-80 102 % of control | dose: 400.0 mg/kg/injection, schedule: Q01DX001 (ip), vehicle: saline with Tween-80 100 % of control

O=C(Oc1ccccc1[N+](=O)[O-])c1ccc(Cl)c(Cl)c1
inactive: dose: 100.0 mg/kg/injection, schedule: Q04DX002 (ip), vehicle: Klucel (hydroxypropylcellulose) (HPC) 90 % of control | dose: 200.0 mg/kg/injection, schedule: Q04DX002 (ip), vehicle: Klucel (hydroxypropylcellulose) (HPC) 97 % of control | dose: 400.0 mg/kg/injection, schedule: Q04DX002 (ip), vehicle: Klucel (hydroxypropylcellulose) (HPC) 100 % of control

Cc1ncc(CO)c(C)c1O
inactive: dose: 0.03 mg/kg/injection, schedule: Q02DX010 (ip), vehicle: saline 118 % of control | dose: 0.04 mg/kg/injection, schedule: Q02DX010 (ip), vehicle: saline 118 % of control | dose: 0.07 mg/kg/injection, schedule: Q02DX010 (ip), vehicle: saline 123 % of control | dose: 0.15 mg/kg/injection, schedule: Q02DX010 (ip), vehicle: saline 86 % of control | dose: 0.23 mg/kg/injection, schedule: Q02DX010 (ip), vehicle: saline 86 % of control | [2] 98 % of control | dose: 22.81 mg/kg/injection, schedule: Q01DX Z (ip), vehicle: carboxymethylcellulose (CMC) 102 % of control | [3] 95 % of control | dose: 45.62 mg/kg/injection, schedule: Q01DX Z (ip), vehicle: carboxymethylcellulose (CMC) 101 % of control | dose: 50.0 mg/kg/injection, schedule: Q01DX009 (ip), vehicle: saline 103 % of control | dose: 91.25 mg/kg/injection, schedule: Q01DX Z (ip), vehicle: carboxymethylcellulose (CMC) 105 % of control | dose: 100.0 mg/kg/injection, schedule: Q01DX009 (ip), vehicle: saline 102 % of control | dose: 182.3 mg/kg/injection, schedule: Q01DX Z (ip), vehicle: carboxymethylcellulose (CMC) 110 % of control | dose: 200.0 mg/kg/injection, schedule: Q01DX009 (ip), vehicle: saline 108 % of control

CC(C)CC(N)C(=O)NCCCl (stereo unspecified)
inactive: dose: 30.0 mg/kg/injection, schedule: Q01DX Z (ip), vehicle: saline 88 % of control | dose: 100.0 mg/kg/injection, schedule: Q01DX Z (ip), vehicle: saline 102 % of control | dose: 300.0 mg/kg/injection, schedule: Q01DX Z (ip), vehicle: saline 88 % of control

O=c1[nH]c(NCCCCc2ccccc2)c(Br)c(=O)[nH]1
inactive: dose: 25.0 mg/kg/injection, schedule: Q01DX001 (ip), vehicle: saline with Tween-80 98 % of control | dose: 50.0 mg/kg/injection, schedule: Q01DX001 (ip), vehicle: saline with Tween-80 97 % of control | [1] 98 % of control

C/C(=N\N=C(N)N)c1cccc(NC(=S)Nc2cccc(/C(C)=N/N=C(N)N)c2)c1
inactive: dose: 20.0 mg/kg/injection, schedule: Q01DX005 (ip), vehicle: saline with Tween-80 108 % of control

O=C1CC(C(=O)O)C(C(=O)O)C1 (stereo unspecified)
inactive: [4] 91 % of control | [5] 91 % of control

Cc1ccc([N+](=O)[O-])cc1NC(=O)Oc1ccc(Cl)cc1Cl
inactive: [6] 104 % of control | dose: 200.0 mg/kg/injection, schedule: Q04DX003 (ip), vehicle: saline with Tween-80 100 % of control

N#CCCCN1C(=O)c2ccccc2S1(=O)=O
inactive: dose: 44.0 mg/kg/injection, schedule: Q01DX Z (ip), vehicle: methylcellulose (MC) 98 % of control | dose: 66.0 mg/kg/injection, schedule: Q01DX Z (ip), vehicle: methylcellulose (MC) 120 % of control | dose: 100.0 mg/kg/injection, schedule: Q01DX Z (ip), vehicle: methylcellulose (MC) 98 % of control

C=C(Br)CN(C)C(C)=O
inactive: dose: 6.25 mg/kg/injection, schedule: Q01DX009 (ip), vehicle: saline 98 % of control | dose: 6.25 mg/kg/injection, schedule: Q04DX003 (ip), vehicle: saline 101 % of control | [2] 98 % of control | dose: 12.5 mg/kg/injection, schedule: Q04DX003 (ip), vehicle: saline 106 % of control | [3] 93 % of control | dose: 25.0 mg/kg/injection, schedule: Q04DX003 (ip), vehicle: saline 98 % of control

O=C(O)c1ccc(N=Cc2ccc([N+](=O)[O-])s2)cc1
inactive: dose: 25.0 mg/kg/injection, schedule: Q04DX003 (ip), vehicle: saline with Tween-80 94 % of control | dose: 50.0 mg/kg/injection, schedule: Q04DX003 (ip), vehicle: saline with Tween-80 100 % of control | [7] 103 % of control | [6] 102 % of control

CCC(C)(C)ON=O
inactive: [8] 107 % of control | [9] 100 % of control | [10] 96 % of control

Clc1ccc(C#Cc2ccc(Cl)cc2)cc1
inactive: dose: 6.25 mg/kg/injection, schedule: Q01DX009 (ip), vehicle: saline with Tween-80 103 % of control | dose: 12.5 mg/kg/injection, schedule: Q01DX009 (ip), vehicle: saline with Tween-80 103 % of control

COc1cc2oc3cc(C)oc(=O)c3c2cc1OC
inactive: [8] 106 % of control | [9] 95 % of control | [10] 103 % of control

O=C(Oc1cc(OC(=O)c2ccccc2)cc(OC(=O)c2ccccc2)c1)c1ccccc1
inactive: [11] 95 % of control | [7] 100 % of control | [12] 95 % of control | dose: 200.0 mg/kg/injection, schedule: Q04DX003 (ip), vehicle: Klucel (hydroxypropylcellulose) (HPC) 100 % of control | [13] 95 % of control | dose: 400.0 mg/kg/injection, schedule: Q04DX003 (ip), vehicle: Klucel (hydroxypropylcellulose) (HPC) 100 % of control

O=[N+]([O-])c1ccc(N/N=C/c2ccccn2)cc1
inactive: [11] 87 % of control | [12] 95 % of control | [13] 97 % of control

CN1C2CCC1CC(OC(=O)c1ccc(O)cc1)C2 (stereo unspecified)
inactive: dose: 9.38 mg/kg/injection, schedule: Q01DX001 (ip), vehicle: saline 94 % of control | dose: 18.75 mg/kg/injection, schedule: Q01DX001 (ip), vehicle: saline 102 % of control

S=C(NCc1ccc(Cl)c(Cl)c1)Nc1ccccc1
inactive: dose: 25.0 mg/kg/injection, schedule: Q01DX009 (ip), vehicle: Klucel (hydroxypropylcellulose) (HPC) 102 % of control | dose: 50.0 mg/kg/injection, schedule: Q01DX009 (ip), vehicle: Klucel (hydroxypropylcellulose) (HPC) 90 % of control | [11] 87 % of control and 90 % of control

O=[N+]([O-])c1cccc(N(CCO)CCO)c1
inactive: dose: 50.0 mg/kg/injection, schedule: Q01DX001 (ip), vehicle: saline 96 % of control | [4] 106 % of control | [5] 93 % of control | dose: 400.0 mg/kg/injection, schedule: Q01DX001 (ip), vehicle: saline 100 % of control
